Entries after “also recorded” stand apart in the source; their conditions may differ. Positions of bridges follow the written chain, without caps; N, C: chain ends. Residues, ends and D or L forms follow the SMILES beside them.
What was measured:
in vitro [1] = format: cell-based; conditions: human
Method: (§1) N-Ac-CHAVC-NH2 (SEQ ID NO:10) and the control peptide N-Ac-CHGVC-NH2 (SEQ ID NO:20) were evaluated for possible cytotoxic effects on human microvascular endothelial (HMVEC; Clonetics), human umbilical vein endothelial (HUVEC; ATCC #CRL-1730), IAFp2 (human fibroblast cell line; Institute Armand-Frapier, Montreal, Quebec), WI-38 (human fibroblast cell line; ATCC #CCL-75), MDA-MB231 (human breast cancer cell line; ATCC #HTB-26), and PC-3 (human prostate cancer cell line; ATCC #CRL-1435) cells utilizing the MTT assay (Plumb et al., Cancer Res. 49:4435-4440, 1989). Neither of the peptides was cytotoxic at concentrations up to and including 100 μM. Similarly, neither of the peptides was capable of inhibiting the proliferation of the above cell lines at concentrations up to 100 μM, as judged by ^3H-thymidine incorporation assays.

in vitro [2] = format: cell-based; conditions: human; remark: listed apart in the source
Method: as §1

chick N-cadherin = molecular target: T1, chick N-cadherin (Gallus gallus, UniProt P10288); test: N-cadherin dependent neurite outgrowth of rat cerebellar neurons on N-cadherin expressing 3T3 cells (Example 14); format: cell-based; conditions: for inhibition at 250 µg/mL: 250 μg/mL; for inhibition at 250 µg/mL / inhibition at 125 µg/mL: 16-18 hours; for inhibition at 125 µg/mL: 125 μg/mL; for inhibitory activity on N-cadherin dependent neurite outgrowth, in words: Tables 8 and 9, 250 or 125 μg/mL
T1 construct: expressed in transfected cells; host or cells: 3T3 fibroblasts
T1 sequence (P10288 165-912): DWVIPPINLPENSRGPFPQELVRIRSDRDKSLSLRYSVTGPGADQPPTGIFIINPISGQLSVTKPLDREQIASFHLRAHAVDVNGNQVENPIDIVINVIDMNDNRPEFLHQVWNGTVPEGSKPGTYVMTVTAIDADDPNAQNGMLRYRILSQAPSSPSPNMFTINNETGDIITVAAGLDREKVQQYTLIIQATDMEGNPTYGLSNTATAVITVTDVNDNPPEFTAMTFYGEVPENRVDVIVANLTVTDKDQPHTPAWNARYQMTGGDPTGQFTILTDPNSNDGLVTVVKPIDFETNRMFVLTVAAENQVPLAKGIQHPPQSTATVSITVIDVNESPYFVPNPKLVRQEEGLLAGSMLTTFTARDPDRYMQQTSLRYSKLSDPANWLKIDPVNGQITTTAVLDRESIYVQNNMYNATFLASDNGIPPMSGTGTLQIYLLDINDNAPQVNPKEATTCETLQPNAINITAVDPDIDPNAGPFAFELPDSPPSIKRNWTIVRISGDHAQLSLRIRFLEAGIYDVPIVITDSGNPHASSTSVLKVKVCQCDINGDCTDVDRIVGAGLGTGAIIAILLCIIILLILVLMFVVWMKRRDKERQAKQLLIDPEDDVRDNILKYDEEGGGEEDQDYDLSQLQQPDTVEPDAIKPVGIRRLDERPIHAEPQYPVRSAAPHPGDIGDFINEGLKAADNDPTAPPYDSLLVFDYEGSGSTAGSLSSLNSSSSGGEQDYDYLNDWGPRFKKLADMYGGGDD
Method: (§2) Cell culture and neurite outgrowth assays. Co-cultures of cerebellar neurons on monolayers of control 3T3 cells and monolayers of transfected 3T3 cells that express physiological levels of chick N-cadherin or human L1 were established as previously described (Williams et al., Neuron 13:583-594, 1994). In brief, 80,000 3T3 cells (control and transfected) were plated into individual chambers of an eight-chamber tissue culture slide coated with polylysine and fibronectin and cultured in DMEM/10% FCS. After 24 hours, when confluent monolayers had formed, the medium was removed and 3000 cerebellar neurons isolated from post-natal day 2-3 rats were plated into each well in SATO media (Doherty et al., Nature 343:464-466, 1990) supplemented with 2% FCS. All of the test peptides were added immediately before the neurons as a 2×stock prepared in SATO/2% FCS. The co-cultures were maintained for 16-18 hours, at which time they were fixed and immunostained for GAP-43 which is present only in the neurons and delineates the neuritic processes. The mean length of the longest neurite per cell was measured for 150-200 neurons sampled in replicate cultures as previously described (Williams et al., Neuron 13:583-594, 1994). […] Dose-response curves were evaluated and the EC50 values determined.
Effects of cyclic HAV peptides on N-cadherin function. The ability of N-Ac-CHAVC-NH2 (SEQ ID NO:10; compound 1) to inhibit neurite outgrowth was initially tested. This cyclic peptide has the cadherin CAR sequence (HAV) and no flanking amino acid residues. Neurons were cultured on confluent monolayers of control (untransfected) and N-cadherin expressing 3T3 cells for 16-18 hours. The cells were then fixed and the length of the longest neurite on 150-200 neurons was determined by standard assay, as described above. FIG. 24 gives the mean neurite length in a representative experiment where cerebellar neurons have been cultured over control and N-cadherin expressing cells. In the absence of peptide, the mean length of the longest neurite per cell was approximately double on the N-cadherin expressing cells, as compared to 3T3 cells. This response requires N-cadherin function in both the neuron and transfected fibroblast.

in vitro [3] = format: cell-based; conditions: human; remark: listed apart in the source
Method: as §1

in vitro [4] = format: cell-based; conditions: human; remark: listed apart in the source
Method: as §1

[5] = test system: bovine pulmonary artery endothelial cells; test: Disruption of bovine endothelial cell adhesion; format: cell-based; conditions: 500 μg/ml, 30 minutes
Method: For use within one such assay, bovine pulmonary artery endothelial cells may be harvested by sterile ablation and digestion in 0.1% collagenase (type II; Worthington Enzymes, Freehold, N.J.). Cells may be maintained in Dulbecco's minimum essential medium supplemented with 10% fetal calf serum and 1% antibiotic-antimycotic at 37° C. in 7% CO2 in air. Cultures may be passaged weekly in trypsin-EDTA and seeded onto tissue culture plastic at 20,000 cells/cm^2. Endothelial cultures may be used at 1 week in culture, which is approximately 3 days after culture confluency is established. The cells may be seeded onto coverslips and treated (e.g., for 30 minutes) with modulating agent or a control compound at, for example, 500 μg/ml and then fixed with 1% paraformaldehyde. As noted above, disruption of cell adhesion may be determined visually within 24 hours, by observing retraction of the cells from one another. This assay evaluates the effect of a modulating agent on N-cadherin mediated cell adhesion.
Bovine pulmonary artery endothelial cells were harvested by sterile ablation and digestion in 0.1% collagenase (type II; Worthington Enzymes, Freehold, N.J.). Cells were maintained in Dulbecco's […] essential medium (Clonetics, San Diego, Calif.) supplemented with 10% fetal calf serum (Atlantic Biologicals, Nor cross, Ga.) and 1% antibiotic-antimycotic at 37° C. in 7% CO2 in air. Cultures were passaged weekly in trypsin-EDTA (Gibco, Grand Island, N.Y.) and seeded onto tissue culture plastic at 20,000 cells/cm^2 for all experiments. Endothelial cultures were used at 1 week in culture, which is approximately 3 days after culture confluency was established. The cells used in all protocols were between 4th passage and 10th passage. The cells were seeded onto coverslips and treated 30 minutes with N-Ac-CHAVC-NH2 (SEQ ID NO:10) or N-Ac-CHGVC-NH2 (SEQ ID NO:20) at 500 μg/ml and then fixed with 1% paraformaldehyde.

L1 = L1 (Homo sapiens, UniProt P32004); test: L1 response: neurite outgrowth of rat cerebellar neurons on L1 expressing 3T3 cells (Example 14); format: cell-based; parameters: expressed in transfected cells; host or cells: 3T3 cells (stably transfected); conditions: 100 μg/mL, concentrations that substantially inhibited the N-cadherin response
Method: FIG. 26 is a bar graph illustrating the effects of the cyclic peptides N-Ac-CHAVDC-NH2 (SEQ ID NO:11), N-Ac-CHAVDIC-NH2 (SEQ ID NO:62) and N-Ac-[…]-NH2 (SEQ ID NO:63) on L1 function. Cerebellar neurons were cultured on monolayers of control 3T3 cells and L1 expressing 3T3 cells for 16-18 hours in control media (unshaded) or control media supplemented with peptides N-Ac-CHAVDC-NH2 (SEQ ID NO:11; diagonal rising right), N-Ac-CHAVDIC-NH2 (SEQ ID NO:62); diagonal cross hatch) or N-Ac-[…]-NH2 (SEQ ID NO:63; diagonal rising left) at a concentration of 100 μg/mL. The cultures were then fixed and neurite outgrowth determined by measuring the length of the longest neurite from a total of 150-200 neurons sampled in replicate cultures for each experimental condition. […] The results are pooled from three independent experiments, and the bars show the s.e.m.
as §2, with “The co-cultures were maintained for 16-18 hours, at which time they were fixed and immunostained for GAP-43 which is present only in the neurons and delineates the neuritic processes.” left out, “determined. […]” for “determined.”

[6] = test system: angiogenesis in chick embryonic chorioallantoic membranes; test: Chick chorioallantoic membrane angiogenesis assay; format: in vivo; conditions: for percent inhibition of angiogenesis: 24 hours
Method: The chick chorioallantoic membrane assay was used to assess the effects of cyclic peptides on angiogenesis (Iruela-Arispe et al., Molecular Biology of the Cell 6:327-343, 1995). Cyclic peptides were embedded in a mesh composed of vitrogen at concentrations of 3, 17, and 33 μg/mesh. The meshes were then applied to 12-day-old chick embryonic chorioallantoic membranes. After 24 hours, the effects of the peptides on angiogenesis were assessed by computer assisted morphometric analysis.
For each concentration of cyclic peptide, the percent inhibition of angiogenesis (relative to the level of angiogenesis in the absence of cyclic peptide) is provided. Assays were performed in the presence (+) or absence (−) of […] VEGF. For example, the cyclic peptide N-Ac-CHAVC-NH2 (SEQ ID NO:10) inhibited angiogenesis by 46%, 51%, and 51% at concentrations of 3, 17, and 33 μg/mesh, respectively.

L1, sequence (P32004 20-1257): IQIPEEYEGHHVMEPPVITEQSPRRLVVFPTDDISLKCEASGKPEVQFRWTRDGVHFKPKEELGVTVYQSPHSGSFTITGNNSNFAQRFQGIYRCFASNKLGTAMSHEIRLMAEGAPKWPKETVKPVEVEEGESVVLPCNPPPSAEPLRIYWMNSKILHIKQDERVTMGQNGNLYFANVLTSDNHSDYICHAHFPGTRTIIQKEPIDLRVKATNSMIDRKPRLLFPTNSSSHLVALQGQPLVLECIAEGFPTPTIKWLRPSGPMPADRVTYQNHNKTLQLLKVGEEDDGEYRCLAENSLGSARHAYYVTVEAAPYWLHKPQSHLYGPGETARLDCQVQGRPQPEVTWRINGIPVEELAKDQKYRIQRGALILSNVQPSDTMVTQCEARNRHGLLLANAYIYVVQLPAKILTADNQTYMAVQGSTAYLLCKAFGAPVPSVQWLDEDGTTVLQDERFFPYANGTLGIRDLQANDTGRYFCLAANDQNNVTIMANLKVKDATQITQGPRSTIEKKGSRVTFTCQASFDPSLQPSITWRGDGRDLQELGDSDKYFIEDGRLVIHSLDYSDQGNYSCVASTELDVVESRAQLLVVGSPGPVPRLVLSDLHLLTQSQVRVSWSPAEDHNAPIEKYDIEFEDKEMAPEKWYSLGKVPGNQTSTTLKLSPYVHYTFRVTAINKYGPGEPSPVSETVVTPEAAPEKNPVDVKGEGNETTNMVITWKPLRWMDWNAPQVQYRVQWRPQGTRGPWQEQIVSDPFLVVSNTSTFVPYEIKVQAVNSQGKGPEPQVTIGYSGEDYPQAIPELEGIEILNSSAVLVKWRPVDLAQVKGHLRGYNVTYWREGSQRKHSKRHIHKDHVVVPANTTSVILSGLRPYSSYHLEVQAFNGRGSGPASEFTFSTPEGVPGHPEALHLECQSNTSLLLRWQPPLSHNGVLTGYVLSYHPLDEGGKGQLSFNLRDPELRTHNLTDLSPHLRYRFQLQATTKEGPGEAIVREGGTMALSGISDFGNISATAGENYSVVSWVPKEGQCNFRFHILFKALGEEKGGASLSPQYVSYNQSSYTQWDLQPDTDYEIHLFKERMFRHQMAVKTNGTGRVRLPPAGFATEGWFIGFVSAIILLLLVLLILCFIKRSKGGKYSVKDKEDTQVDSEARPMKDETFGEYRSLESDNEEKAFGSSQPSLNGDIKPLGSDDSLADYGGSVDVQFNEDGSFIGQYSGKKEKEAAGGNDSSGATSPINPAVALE

Row | Compound | IC50 (in vitro [1]) [µM] | IC50 (in vitro [2]) [µM] | inhibition at 250 µg/mL (chick N-cadherin; NIH3T3) [%] | IC50 (in vitro [3]) [µM] | IC50 (in vitro [4]) [µM] | effect on endothelial cell monolayer / morphology [5] | effect on L1 response (neurite outgrowth over L1 expressing 3T3 cells) (L1) | inhibition at 125 µg/mL (chick N-cadherin; NIH3T3) [%] | inhibitory activity on N-cadherin dependent neurite outgrowth, in words (chick N-cadherin) | EC50 (chick N-cadherin; from dose-response curve) [µM] | inhibition at 33 µg/mL (chick N-cadherin; NIH3T3, 33 μg/mL) [%] | percent inhibition of angiogenesis ([6]; 3 μg/mesh, absence (−) of 0.01 mM VEGF) [%] | percent inhibition of angiogenesis ([6]; 3 μg/mesh, presence (+) of 0.01 mM VEGF) [%] | percent inhibition of angiogenesis ([6]; 17 μg/mesh, absence (−) of 0.01 mM VEGF) [%] | percent inhibition of angiogenesis ([6]; 17 μg/mesh, presence (+) of 0.01 mM VEGF) [%] | percent inhibition of angiogenesis ([6]; 33 μg/mesh, absence (−) of 0.01 mM VEGF) [%] | percent inhibition of angiogenesis ([6]; 33 μg/mesh, presence (+) of 0.01 mM VEGF) [%] | inhibition of angiogenesis, in words ([6]; 3, 17, and 33 μg/mesh) | reduction in inhibitory activity on flanking HAV with E-cadherin amino acids (chick N-cadherin; Table 8, 250 μg/mL)
1 | CC(=O)N[C@H]1CSSC[C@@H](C(N)=O)NC(=O)[C@H](CO)NC(=O)[C@H](CO)NC(=O)[C@H](C(C)C)NC(=O)CNC(=O)[C@H](Cc2c[nH]cn2)NC(=O)[C@H](CO)NC1=O [reference compound] (Ac-CSHGVSSC-NH2; disulfide 1-8) | > 100 | > 100 | -5.6 ± 5.9 | > 100 | > 100 | inactive |  |  |  |  |  |  |  |  |  |  |  |  | 
2 | CC[C@H](C)[C@@H]1NC(=O)[C@H](CC(=O)O)NC(=O)[C@H](C(C)C)NC(=O)[C@H](C)NC(=O)[C@H](Cc2c[nH]cn2)NC(=O)[C@@H](NC(C)=O)CSSC[C@@H](C(N)=O)NC(=O)[C@H](CC(N)=O)NC1=O (Ac-CHAVDINC-NH2; disulfide 1-8) |  |  |  |  |  |  | did not interfere with the ability of neurons to extend neurites over 3T3 cells expressing L1; also recorded: not inhibited | 62 ± 3.4 | only a slight loss in activity; also recorded: potent inhibitors | 70 |  |  |  |  |  |  |  |  | 
3 | CC(=O)N[C@H]1CSSC[C@@H](C(N)=O)NC(=O)[C@H](CC(=O)O)NC(=O)[C@H](C(C)C)NC(=O)[C@H](C)NC(=O)[C@H](Cc2c[nH]cn2)NC1=O [N-Ac-CHAVDC-NH2] (Ac-CHAVDC-NH2; disulfide 1-6) |  |  |  |  |  |  | did not interfere with the ability of neurons to extend neurites over 3T3 cells expressing L1; also recorded: not inhibited | 77.1 ± 8.4 | dramatically increased the inhibitory activity; also recorded: potent inhibitors of neurite outgrowth |  | 28.5 |  |  |  |  |  |  |  | 
4 | CC(=O)N[C@H]1CSSC[C@@H](C(N)=O)NC(=O)[C@H](CC(=O)O)NC(=O)[C@H](C(C)C)NC(=O)CNC(=O)[C@H](Cc2c[nH]cn2)NC(=O)[C@H](C)NC1=O [N-Ac-CAHGVDC-NH2, reference compound] (Ac-CAHGVDC-NH2; disulfide 1-7) | > 100 | > 100 | 4 ± 6.9 | > 100 | > 100 | inactive |  |  |  |  |  |  |  |  |  |  |  |  | 
5 | CC(=O)N[C@H]1CSSC[C@@H](C(N)=O)NC(=O)[C@H](CO)NC(=O)[C@H](CO)NC(=O)[C@H](C(C)C)NC(=O)[C@H](C)NC(=O)[C@H](Cc2c[nH]cn2)NC(=O)[C@H](CO)NC1=O (Ac-CSHAVSSC-NH2; disulfide 1-8) | > 100 | > 100 | -12.6 ± 6.4 | > 100 | > 100 | disrupted the endothelial cell monolayer; also recorded: retracted from one another and round up |  |  |  |  |  | 1 | −3 | −3 | 12 | 17 | 7 | relatively inactive | complete
